Measured values: patent US11999806B2, “Broad-spectrum polypeptide against enterovirus and application thereof” (WUHAN INSTITUTE OF VIROLOGY, CHINESE ACADEMY OF SCIENCES, priority 2018, dated 2024)
Several values for one entry are separate records, joined by “and”; a condition that tells them apart may be missing. Identical values can stand only once. Non-standard residues stand in square brackets, D forms with d. Residues, ends and D or L forms follow the SMILES beside them. No end group written: not given here.

Key:
RD cells = assay: Cytotoxicity by CCK-8 in RD cells; assay type: cell-based; conditions: RD cells; for Cell viability (%): 24 h; for cytotoxicity, result in words: CCK-8, 24 h
[1] = Cytotoxicity by CCK-8 in RD cells; assay type: cell-based; conditions: human, RD cells; for viability at 24 h, 0.46875 µM / viability at 24 h, 2.34375 µM / viability at 24 h, 4.6875 µM / viability at 24 h, 9.375 µM / viability at 24 h, 18.75 µM / viability at 24 h, 37.5 µM / viability at 24 h, 75 µM / viability at 24 h, 150 µM / viability at 24 h, 300 µM: read-out: Cell viability (%); for CC50 at 24 h: CCK-8, 24 h, Example 15, read-out: 50% cytotoxic concentration (CC50)

Row | Compound | Cell viability (%) (RD cells; 0.46875 μM) | Cell viability (%) (RD cells; 2.34375 μM) | Cell viability (%) (RD cells; 4.6875 μM) | Cell viability (%) (RD cells; 9.375 μM) | Cell viability (%) (RD cells; 18.75 μM) | Cell viability (%) (RD cells; 37.5 μM) | Cell viability (%) (RD cells; 75 μM) | Cell viability (%) (RD cells; 150 μM) | Cell viability (%) (RD cells; 300 μM) | cytotoxicity, result in words (RD cells) | viability at 24 h, 0.46875 µM [1] [%] | viability at 24 h, 2.34375 µM [1] [%] | viability at 24 h, 4.6875 µM [1] [%] | viability at 24 h, 9.375 µM [1] [%] | viability at 24 h, 18.75 µM [1] [%] | viability at 24 h, 37.5 µM [1] [%] | viability at 24 h, 75 µM [1] [%] | viability at 24 h, 150 µM [1] [%] | viability at 24 h, 300 µM [1] [%] | CC50 at 24 h [1] [µM]
1 | CC(=O)N[C@H](CCCNC(=N)N)C(=O)N[C@H](CS)C(=O)N[C@H](Cc1ccc(O)cc1)C(=O)N[C@H](CCC(N)=O)C(=O)N[C@H](CCCNC(=N)N)C(=O)N[C@@H](C(=O)N[C@H](CCC(=O)O)C(=O)N[C@H](CCC(=O)O)C(=O)N1CCC[C@@H]1C(=O)N1CCC[C@@H]1C(=O)N[C@H](CCCNC(=N)N)C(=O)N[C@H](CCCNC(=N)N)C(=O)N[C@H](CCCNC(=N)N)C(=O)N[C@H](CCC(N)=O)C(=O)N[C@H](CCCNC(=N)N)C(=O)N[C@H](CCCNC(=N)N)C(=O)N[C@H](CCCCN)C(=O)N[C@H](CCCCN)C(=O)N[C@H](CCCNC(=N)N)C(=O)NCC(=O)N[C@H](Cc1ccc(O)cc1)C(N)=O)C(C)C [ER-DRI] (Ac-[dR][dC][dY][dQ][dR][dV][dE][dE][dP][dP][dR][dR][dR][dQ][dR][dR][dK][dK][dR]G[dY]-NH2) | 100.2% and 99.28% | 98.83% and 96.33% | 98.51% and 97.63% | 96.79% and 94.15% | 91.14% and 89.01% | 86.77% and 86.97% | 70.42% and 71.95% | 34.62% and 34.08% | 17.58% and 18.69% | very low toxicity | 103 | 104 | 101 | 96 | 95.8 | 86 | 68.9 | 34 | 18.2 | 117
2 | YGRKKRRQRRRGSGEEVRQYCR [ER] | 99.34% and 100% | 98.07% and 102.7% | 100.8% and 103.1% | 98.48% and 102.4% | 96.59% and 98.47% | 95.69% and 92.24% | 89.79% and 90.36% | 74.32% and 76.72% | 43.39% and 48.41% | very low toxicity | 99.9 | 98.6 | 99.1 | 98.5 | 99 | 94.8 | 89.7 | 72.9 | 42.2 | 290
